Eight molecules from ChEMBL document CHEMBL1201862, “PubChem BioAssay data set” (2004) can be followed below.

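All cell lines were grown in 96-well plates and treated with compound for 48 hours. Here, GI50 denotes the concentration required for 50% inhibition of growth.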 Calls of active or inactive are those of the source. Rule as the data show it: active = GI50 up to about 1.1 µM and inactive = higher.

What all share (test): NCI tumour cell line growth inhibition, 48 h
The subject of assay [1] is A498.
Assay [2] concerns SK-OV-3.
The test system of assay [3] is SF-539.
Assay [4] relates to HCT-15.
The subject of assay [5] is HOP-92.
Assay [6] concerns SNB-75.
In assay [7] the test system is A549.
In assay [8] the test system is SNB-19.
Assay [9] has as its system SK-MEL-5.
The subject of assay [10] is SK-MEL-2.
Assay [11] has as its system SK-MEL-28.
In assay [12] the test system is Malme-3M.
Assay [13] has as its system K562.
The test system of assay [14] is MOLT-4.
The subject of assay [15] is RXF 393.
Assay [16] relates to NCI/ADR-RES.
Assay [17] has as its system MCF7.
The subject of assay [18] is CAKI-1.
Assay [19] concerns NCI-H23.
Assay [20] has as its system SNB-78.

Turning to `Fc1ccc(NC(=S)SCc2ccc3c(c2)OCO3)cc1F`, the GI50 in [1] was 17.4 µM (inactive); in assay [2], 53.6 µM (inactive); in assay [3] it was 22.7 µM (inactive); in assay [4] it was 17.2 µM; in assay [5], 23.2 µM (inactive); in assay [6], 20.6 µM (inactive). Further, the GI50 is 15.6 µM (inactive) in assay [7]; 16.6 µM (inactive) in assay [8]; 16 µM (inactive) in assay [9]; 18.3 µM (inactive) in assay [10]; 3.76 µM (inactive) in [11]; 24.4 µM (inactive) in [12]. For the same molecule, the GI50 in [13] was 19.1 µM (inactive); in assay [14], 18.7 µM (inactive); in assay [15], 15.5 µM (inactive); in [16], 25.2 µM (inactive); in assay [17], 18.7 µM (inactive); in [18] it was 27.7 µM (inactive). In addition, the GI50 in [19] was 20.7 µM (inactive).

Regarding `CC(C)=CCC[C@@H](C)C1=C(Nc2ccccc2F)C(=O)C(C)=C(O)C1=O`, the GI50 was 6.78 µM (inactive) in [1]; 6.47 µM (inactive) in assay [2]; 10.1 µM (inactive) in assay [3]; 3.77 µM in assay [4]; 9.31 µM (inactive) in assay [5]; 12.7 µM (inactive) in [6]. The GI50 in [7] was 4.09 µM (inactive); in assay [8] it was 4.42 µM (inactive); in [9], 3.18 µM (inactive); in assay [10], 8.75 µM (inactive); in assay [11], 17.6 µM (inactive); in [12] it was 7.6 µM (inactive). The GI50 in assay [13] was 4.45 µM (inactive); in [14], 5.46 µM (inactive); in [15], 16.8 µM (inactive); in assay [16], 2.55 µM (inactive); in assay [17], 9.95 µM (inactive); in [18] it was 5.83 µM (inactive). Besides, in assay [19], the GI50 is 3.66 µM (inactive).

As for `CCCOP1(=O)C=C(O)C(Cl)=C(C)C1` (stereo unspecified), the GI50 in [2] is > 100 µM (inactive); in assay [3] it was > 100 µM (inactive); in assay [20], > 100 µM (inactive); in assay [4] it was above 100 µM; in assay [5], > 100 µM (inactive); in assay [6], > 100 µM (inactive). For the same molecule, the GI50 in [7] is > 100 µM (inactive); in assay [8], > 100 µM (inactive); in assay [9], > 100 µM (inactive); in [10], 40.6 µM (inactive); in assay [11], > 100 µM (inactive); in [12], > 100 µM (inactive). Besides, the GI50 in assay [13], in assay [14], in [15] and in assay [19] was > 100 µM (inactive) each time.

For `CC[C@H]1C=CCC[C@@]2(C[C@@H]3CC[C@@H]4[C@H](C(=O)OCCCCCCCCCCCCCCCC(=O)N(CCCN)CCCCN)[C@]5(CCC[C@@H](C)O5)NC(=[N+]34)N2)O1`, the GI50 in [1] was 1.56 µM (inactive); in [2] it was 0.136 µM (active); in assay [3], 0.0679 µM (active); in [4] it was 0.0479 µM; in [5], 0.0224 µM (active); in [6] it was 0.0533 µM (active). Also, the GI50 in assay [7] is 0.0365 µM (active); in [8], 0.381 µM (active); in assay [9], < 0.01 µM (active); in assay [10] it was 0.0259 µM (active); in assay [11], 0.233 µM (active); in assay [12] it was 0.04 µM (active). Besides, the GI50 is 0.0299 µM (active) in assay [13]; 0.0155 µM (active) in [14]; 0.071 µM (active) in [15]; 0.0944 µM (active) in assay [16]; 0.0684 µM (active) in assay [17]; 0.0908 µM (active) in assay [18]. Further, in assay [19], the GI50 was 0.0724 µM (active).

With `CCN1CCC(O)(/C=C/c2ccc(C)cc2C)C(C(=O)/C=C/c2ccc(C)cc2C)C1` (stereo unspecified), the GI50 in assay [1] was 9.59 µM (inactive); in assay [2], 9.57 µM (inactive); in assay [3], 1.92 µM (inactive); in assay [4], 1.93 µM; in assay [5], 1.85 µM (inactive); in assay [6], 5.79 µM (inactive). Also, the GI50 in [7] is 4 µM (inactive); in assay [8] it was 4.03 µM (inactive); in assay [9] it was 3.04 µM (inactive); in assay [10], 4.26 µM (inactive); in assay [11], 4.7 µM (inactive); in assay [12], 5.82 µM (inactive). Besides, the GI50 was 3.13 µM (inactive) in [13]; 1.28 µM (inactive) in assay [14]; 3.21 µM (inactive) in assay [15]; 2.46 µM (inactive) in assay [16]; 2.69 µM (inactive) in [17]; 5.09 µM (inactive) in assay [18]. Moreover, in assay [19], the GI50 is 2.77 µM (inactive).

Consider `O=c1[nH]nc(-c2ccc([N+](=O)[O-])cc2)n1/N=C/c1ccc([N+](=O)[O-])cc1`, for which the GI50 in [1] was > 100 µM (inactive); in assay [2], > 100 µM (inactive); in assay [3] it was > 100 µM (inactive); in [4], 73.8 µM; in assay [5], > 100 µM (inactive); in assay [6], > 100 µM (inactive). Moreover, the GI50 was 90.8 µM (inactive) in [7]; > 100 µM (inactive) in assay [8]; 48.4 µM (inactive) in [9]; > 100 µM (inactive) in [10]; > 100 µM (inactive) in assay [11]; > 100 µM (inactive) in assay [12]. In addition, the GI50 is 43.7 µM (inactive) in [13]; 23.6 µM (inactive) in assay [14]; 56.9 µM (inactive) in assay [15]; 64.7 µM (inactive) in assay [16]; 47.9 µM (inactive) in assay [17]; > 100 µM (inactive) in assay [18]. The GI50 in assay [19] is 60.7 µM (inactive).

`COc1ccc2[nH]cc(C(=O)C(=O)NC34CC5CC(CC(C5)C3)C4)c2c1`: the GI50 in assay [1] was 43.8 µM (inactive); in [2], 73.3 µM (inactive); in [3] it was 14 µM (inactive); in assay [4], 9.16 µM; in assay [5], 29.5 µM (inactive); in assay [6], 37.9 µM (inactive). Moreover, the GI50 in assay [7] is 26.2 µM (inactive); in assay [8] it was 53.5 µM (inactive); in assay [9] it was 32.2 µM (inactive); in assay [10] it was 57.8 µM (inactive); in assay [11], 15.4 µM (inactive); in assay [12], 46.9 µM (inactive). The GI50 in assay [13] is 4.44 µM (inactive); in assay [14], 2.66 µM (inactive); in assay [15] it was 3.22 µM (inactive); in [16], 55.2 µM (inactive); in assay [17], 10.1 µM (inactive); in assay [18], > 45.4 µM (inactive). In addition, in assay [19], the GI50 is > 72.6 µM (inactive).

Consider `NC(C(=O)O)c1ccc(C(=O)O)cc1` (stereo unspecified), for which the GI50 was > 100 µM (inactive) in assay [2]; > 100 µM (inactive) in [3]; > 100 µM (inactive) in assay [20]; above 100 µM in assay [4]; > 100 µM (inactive) in assay [6]; > 100 µM (inactive) in assay [7]. Moreover, the GI50 in assay [8], in assay [9], in [10], in assay [11], in assay [12] and in [13] was > 100 µM (inactive) each time. The GI50 in assay [14], in assay [15], in assay [18] and in assay [19] was > 100 µM (inactive) in each case.
